Tests used:
crabgrass, large = test: Test E preemergence herbicide test; assay type: in vivo, Digitaria sanguinalis; design: key: 0 = no effect, 100 = complete control
Summary of the method: (§1)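 Greenhouse preemergence test: seeds sown into silt loam received compound in a non-phytotoxic solvent mixture with surfactant. Plants grew 21 days before visual comparison with controls. Scores run from 0, no effect, to 100, complete control.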

morningglory = test: Test E preemergence herbicide test; assay type: in vivo, Ipomoea coccinea; design: key: 0 = no effect, 100 = complete control
Summary of the method: as §1

foxtail, green = test: Test D pre-/postemergence herbicide test; assay type: in vivo, Setaria viridis; conditions: for Plant response rating: Foxtail, Green, scale 0 to 100; for Plant response rating, Foxtail, Green: scale 0 to 100 (0 no effect, 100 complete control)
Summary of the method: (§2)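 Visual injury score, 0 (no effect) to 100 (complete control), taken 7–21 d post-treatment against untreated controls. Application was preemergence in silt loam and postemergence at 1- to 4-leaf stage, using a surfactant-containing non-phytotoxic solvent formulation.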

nightshade = test: Test E preemergence herbicide test; assay type: in vivo, Solanum ptycanthum; design: key: 0 = no effect, 100 = complete control
From the text: Seeds of plant species selected from corn (Zea mays), soybean (Glycine max), velvetleaf (Abutilon theophrasti), lambsquarters (Chenopodium album), wild poinsettia (Euphorbia heterophylla), pigweed, palmer (palmer pigweed, Amaranthus palmeri), waterhemp (common waterhemp, Amaranthus rudis), surinam grass (Brachiaria decumbens), crabgrass, large (large crabgrass, Digitaria sanguinalis), crabgrass, Brazil (Brazilian crabgrass, Digitaria horizontalis), panicum, fall (fall panicum, Panicum dichotomiflorum), foxtail, giant (giant foxtail, Setaria faberii), foxtail, green (green foxtail, Setaria viridis), goosegrass (Eleusine indica), johnsongrass (Sorghum halepense), ragweed (common ragweed, Ambrosia elatior), barnyardgrass (Echinochloa crus-galli), sandbur (southern sandbur, Cenchrus echinatus), arrowleaf […] rhombifolia), ryegrass, Italian (Italian ryegrass, Lolium multiflorum), dayflower, VA (Virginia dayflower, Commelina virginica), field bindweed (Convolvulus arvensis), morningglory (Ipomoea coccinea), nightshade (eastern black nightshade, Solanum ptycanthum), kochia (Kochia scoparia), nutsedge, yellow (yellow nutsedge, Cyperus esculentus), cocklebur (common cocklebur, Xanthium strumarium), smartweed (ladysthumb smartweed, Polygonum Persicaria) and beggarticks (hairy beggarticks, Bidens pilosa), were planted into a silt loam soil and treated preemergence with test chemicals formulated in a non-phytotoxic solvent mixture which included a surfactant. Treated plants and controls were maintained in a greenhouse for 21 days, after which time all species were compared to controls and visually evaluated. Plant response ratings, summarized in Table E, are based on a scale of 0 to 100 where 0 is no effect and 100 is complete control. A dash (-) response means no test result.

barnyardgrass = test: Test E preemergence herbicide test; assay type: in vivo, Echinochloa crus-galli; design: key: 0 = no effect, 100 = complete control
Summary of the method: as §1

ryegrass, Italian = test: Test E preemergence herbicide test; assay type: in vivo, Lolium multiflorum; design: key: 0 = no effect, 100 = complete control
Summary of the method: as §1

barley, winter = test: Test D pre-/postemergence herbicide test; assay type: in vivo, Hordeum vulgare; conditions: for Plant response rating: Barley, Winter, scale 0 to 100; for Plant response rating, Barley, Winter: scale 0 to 100 (0 no effect, 100 complete control)
Summary of the method: as §2

barley, spring = test: Test D pre-/postemergence herbicide test; assay type: in vivo, Hordeum vulgare; conditions: for Plant response rating: Barley, Spring, scale 0 to 100; for Plant response rating, Barley, Spring: scale 0 to 100 (0 no effect, 100 complete control)
Summary of the method: as §2

lambsquarters = test: Test E preemergence herbicide test; assay type: in vivo, Chenopodium album; design: key: 0 = no effect, 100 = complete control
Summary of the method: as §1

field bindweed = test: Test E preemergence herbicide test; assay type: in vivo, Convolvulus arvensis; design: key: 0 = no effect, 100 = complete control
Summary of the method: as §1

mustard, wild = test: Test D pre-/postemergence herbicide test; assay type: in vivo, Sinapis arvensis; conditions: for Plant response rating: Mustard, Wild, scale 0 to 100; for Plant response rating, Mustard, Wild: scale 0 to 100 (0 no effect, 100 complete control)
Summary of the method: as §2

## O=C1NCC(c2ccc(C(F)(F)F)cc2)C1C(=O)Nc1cccc(F)c1F (racemic) [Compound 202]
crabgrass, large; 31 g ai/ha
  Plant response rating, Crabgrass, Large: 98
crabgrass, large; 62 g ai/ha
  Plant response rating, Crabgrass, Large: 98
crabgrass, large; 125 g ai/ha
  Plant response rating, Crabgrass, Large: 98
crabgrass, large; 250 g ai/ha
  Plant response rating, Crabgrass, Large: 98
morningglory; 31 g ai/ha
  Plant response rating, Morningglory: 0
morningglory; 62 g ai/ha
  Plant response rating, Morningglory: 0
morningglory; 125 g ai/ha
  Plant response rating, Morningglory: 0
morningglory; 250 g ai/ha
  Plant response rating, Morningglory: 30
foxtail, green; Postemergence, 31 g ai/ha
  Plant response rating: 60
foxtail, green; Postemergence, 62 g ai/ha
  Plant response rating: 65
foxtail, green; Postemergence, 125 g ai/ha
  Plant response rating: 70
foxtail, green; Postemergence, 250 g ai/ha
  Plant response rating: 70
foxtail, green; Preemergence, 62 g ai/ha
  Plant response rating, Foxtail, Green: 90
foxtail, green; Preemergence, 31 g ai/ha
  Plant response rating, Foxtail, Green: 90
foxtail, green; Preemergence, 125 g ai/ha
  Plant response rating: 98
foxtail, green; Preemergence, 250 g ai/ha
  Plant response rating: 95
nightshade; 31 g ai/ha
  Plant response rating, Nightshade: 0
nightshade; 62 g ai/ha
  Plant response rating, Nightshade: 50
nightshade; 125 g ai/ha
  Plant response rating, Nightshade: 90
nightshade; 250 g ai/ha
  Plant response rating, Nightshade: 80
barnyardgrass; 31 g ai/ha
  Plant response rating, Barnyardgrass: 40
barnyardgrass; 62 g ai/ha
  Plant response rating, Barnyardgrass: 80
barnyardgrass; 125 g ai/ha
  Plant response rating, Barnyardgrass: 85
barnyardgrass; 250 g ai/ha
  Plant response rating, Barnyardgrass: 98
ryegrass, Italian; 31 g ai/ha
  Plant response rating, Ryegrass, Italian: 0
ryegrass, Italian; 62 g ai/ha
  Plant response rating, Ryegrass, Italian: 0
ryegrass, Italian; 125 g ai/ha
  Plant response rating, Ryegrass, Italian: 25
ryegrass, Italian; 250 g ai/ha
  Plant response rating, Ryegrass, Italian: 50
barley, winter; Postemergence, 31 g ai/ha
  Plant response rating: 0
barley, winter; Postemergence, 62 g ai/ha
  Plant response rating: 0
barley, winter; Postemergence, 125 g ai/ha
  Plant response rating: 0
barley, winter; Postemergence, 250 g ai/ha
  Plant response rating: 0
barley, winter; Preemergence, 62 g ai/ha
  Plant response rating, Barley, Winter: 20
barley, winter; Preemergence, 31 g ai/ha
  Plant response rating, Barley, Winter: 20
barley, winter; Preemergence, 125 g ai/ha
  Plant response rating: 20
barley, winter; Preemergence, 250 g ai/ha
  Plant response rating: 25
barley, spring; Postemergence, 31 g ai/ha
  Plant response rating: 0
barley, spring; Postemergence, 62 g ai/ha
  Plant response rating: 0
barley, spring; Postemergence, 125 g ai/ha
  Plant response rating: 0
barley, spring; Postemergence, 250 g ai/ha
  Plant response rating: 5
barley, spring; Preemergence, 62 g ai/ha
  Plant response rating, Barley, Spring: 25
barley, spring; Preemergence, 31 g ai/ha
  Plant response rating, Barley, Spring: 0
barley, spring; Preemergence, 125 g ai/ha
  Plant response rating: 25
barley, spring; Preemergence, 250 g ai/ha
  Plant response rating: 30
lambsquarters; 31 g ai/ha
  Plant response rating, Lambsquarters: 0
lambsquarters; 62 g ai/ha
  Plant response rating, Lambsquarters: 98
lambsquarters; 125 g ai/ha
  Plant response rating, Lambsquarters: 98
lambsquarters; 250 g ai/ha
  Plant response rating, Lambsquarters: 98
Field bindweed; 31 g ai/ha
  Plant response rating, Field Bindweed: 60
Field bindweed; 62 g ai/ha
  Plant response rating, Field Bindweed: 40
Field bindweed; 125 g ai/ha
  Plant response rating, Field Bindweed: 50
Field bindweed; 250 g ai/ha
  Plant response rating, Field Bindweed: 70
mustard, wild; Postemergence, 31 g ai/ha
  Plant response rating: 85
mustard, wild; Postemergence, 62 g ai/ha
  Plant response rating: 80
mustard, wild; Postemergence, 125 g ai/ha
  Plant response rating: 80
mustard, wild; Postemergence, 250 g ai/ha
  Plant response rating: 85
mustard, wild; Preemergence, 62 g ai/ha
  Plant response rating, Mustard, Wild: 0
mustard, wild; Preemergence, 31 g ai/ha
  Plant response rating, Mustard, Wild: 0
mustard, wild; Preemergence, 125 g ai/ha
  Plant response rating: 20
mustard, wild; Preemergence, 250 g ai/ha
  Plant response rating: 75

Source: patent publication US10294202B2, “Pyrrolidinones as herbicides” (FMC Corporation, priority 2013, dated 2019)
